Target: T1, recombinant DPP-4 enzyme D4943 (Homo sapiens, UniProt P27487)
T1 construct: purchased Sigma-Aldrich D4943
Experiment: DPP-4 enzyme inhibition, chromogenic substrate Gly-Pro-pNA, absorbance at 405 nm
Assay type: biochemical
Conditions: 37 °C for 30 min, pH 7.6, dilution range 10^−4 to 10^−11 M
Method: The DDP-4 enzyme inhibitory activities of the synthesised compounds were assessed using protocols similar to those described in the literature. For IC50 values determination, inhibitory assays were carried out using recombinant DPP-4 enzyme D4943, chromogenic substrate Gly-Pro-pNA and buffer system (50 mM Tris-HCl, 50 mM NaCl, 0.01% Triton, pH = 7.6). After short incubation (37 °C for 30 min), the absorbance at 405 nm was measured. The procedure was initially optimised using reference compounds. Each inhibitor was analysed in the dilution range from 10^−4 to 10^−11 M. Certified samples of commercial drugs-inhibitors of DPP-4 (vilda-, sita-, alo- and linagliptin) with known IC50 were used as reference compounds. […] We analysed every compound in the dilution range […] (Table 3).
For the inhibitory assays, we used the substrate Gly-Pro-p-nitroanilide (H-Gly-Pro-pNA HCl, G0513) and recombinant dipeptidyl peptidase-4 enzyme (D4943) that were purchased from Sigma-Aldrich (St. Louis, MO, USA). […] The mixtures were incubated at 37 °C for 30 min, and the absorbance at 405 nm was measured using the microplate reader ChemWell (Awareness Technology Inc., Palm City, FL, USA). DPP-4 inhibitory activities for each test compound were calculated. […]

T1 sequence (P27487 whole entry): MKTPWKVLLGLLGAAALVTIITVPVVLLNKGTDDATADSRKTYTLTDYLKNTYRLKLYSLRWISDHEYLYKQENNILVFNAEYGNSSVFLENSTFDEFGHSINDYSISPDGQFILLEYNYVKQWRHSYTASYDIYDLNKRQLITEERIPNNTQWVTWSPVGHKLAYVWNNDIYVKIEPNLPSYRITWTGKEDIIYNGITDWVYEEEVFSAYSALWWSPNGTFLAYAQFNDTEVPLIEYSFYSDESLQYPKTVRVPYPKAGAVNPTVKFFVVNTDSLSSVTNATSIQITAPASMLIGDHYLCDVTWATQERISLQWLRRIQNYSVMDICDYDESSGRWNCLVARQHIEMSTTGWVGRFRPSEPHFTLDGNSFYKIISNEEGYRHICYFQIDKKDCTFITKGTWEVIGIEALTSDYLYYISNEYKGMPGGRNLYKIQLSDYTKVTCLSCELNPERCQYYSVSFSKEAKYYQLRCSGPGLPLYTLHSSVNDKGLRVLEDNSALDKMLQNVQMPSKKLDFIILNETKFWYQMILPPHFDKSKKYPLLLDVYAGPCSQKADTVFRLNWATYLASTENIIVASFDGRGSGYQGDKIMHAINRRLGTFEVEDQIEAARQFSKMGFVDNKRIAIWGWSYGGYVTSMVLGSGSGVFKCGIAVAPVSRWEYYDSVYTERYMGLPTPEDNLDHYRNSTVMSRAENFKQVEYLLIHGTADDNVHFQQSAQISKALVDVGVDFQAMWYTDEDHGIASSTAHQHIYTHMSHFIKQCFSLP

Substance: ( 3R,S)-2-[(3R)-3-Amino-4-(2,4,5-trifluorophenyl)butanoyl]-endo-2-azabicyclo[2.2.1]hepnane-3-carbonitrile p-toluenesulpfonate [12c (S-endo): 12d (R-endo), 1:1 mixture]
- IC50: > 1 µM
